{"source": "patent US20220023269A1", "about": "“Methods Of Treating Diabetes In Severe Insulin-Resistant Diabetic Subjects” (Balticgruppen Bio AB, priority 2018, published 2022)", "key": {"[1]": {"system": "AMPK in human skeletal myotubes", "assay": "AMPK activation assay in human skeletal myotubes", "assay_type": "cell-based", "conditions": "cells preferentially expressing β2 subunit", "method": "(§1) All cell lines were lysed in 0.1 M Tris-HCl, pH 6.8, 2% SDS, 10 mM sodium fluoride (SIGMA #S7920), 10 mM β-glycerophosphate (SIGMA #G6376), and 1 mM sodium vanadate (SIGMA #72060) and supernatant collected after 1 minute at 14,000 rpm. Islets (human and mouse) were lysed in 0.1 M Tris-HCl, pH 6.8, 2% SDS, protease inhibitor (Roche #04 693 124 001) and phosphatase inhibitor (Roche #04 906 837 001). Right calf muscle, heart, iWAT, and interscapular BAT was crushed in a pestle using liquid nitrogen and homogenised in ice cold RIPA buffer (150 mM sodium chloride (SIGMA #S7653), 1.0% NP40 (USB), 0.5% sodium deoxycholate (SIGMA #D6750), 0.1% SDS, 50 mM Tris pH 8.0, 20 mM sodium pyrophosphate (SIGMA #71515), 10 mM sodium fluoride, 10 mM β-glycerolphosphate, 1 mM sodium vanadate and protease inhibitor cocktail (Roche #04693124001), 1 tablet/10 ml lysis buffer). The supernatant was collected after 2 min at 14,000 rpm. This procedure was repeated until all fat was eliminated and the supernatant was clear, at 4° C. Samples were analysed on 4-15% polyacrylamide gels. Values were normalised toward AMPKα, β-Actin, GAPDH or the respective non-phosphorylated counterpart.\n(§2) Table 3 contains origin of cell lines, growth conditions and settings for activation of AMPK via the test material. […]"}, "[2]": {"system": "AMPK in rat insulinoma INS-1 cells", "assay": "AMPK activation in INS-1 insulinoma cells", "assay_type": "cell-based", "conditions": "2.5, 5, 10 μM, 2 hours", "method": "as §1, §2"}, "[3]": {"system": "AMPK in primary mouse WT and hIAPPtg islets", "assay": "AMPK activation in primary mouse WT and hIAPPtg islets", "assay_type": "cell-based", "conditions": "2.5, 5, 10 μM, 2 hours", "method": "as §1, §2"}, "INS-1E cells": {"system": "INS-1E cells", "assay": "Autophagic flux assay", "assay_type": "cell-based", "conditions": "5 μM, 24 h, ± 100 nM Bafilomycin A1", "method": "INS-1E cells were incubated for 24 h with or without 5 μM test material in the presence or absence of 100 nM Bafilomycin A1 (InvivoGen #tlrl-baf1) during the last 60 min of incubation. Levels of LC3II were determined by Western blot analysis and quantified."}, "DIO mice (B6CBAF1/J)": {"system": "DIO mice (B6CBAF1/J)", "assay": "Laser Doppler imaging of peripheral blood perfusion", "assay_type": "in vivo", "conditions": "40 mg/kg/day gavage, 8 w, vs vehicle", "method": "9 weeks old F1 mice were fed HFD for 8 weeks and treated with either vehicle or test material (40 mg/kg, orally once a day). Veet hair removal cream was used to remove hair from the left hind limb one day prior to blood perfusion analysis. Mice were anaesthetised using isoflurane and placed on a heating pad. Blood perfusion was scanned using a PeriScan PIM II Images and LDPIwin software (version 2.6.1) was used to analyse the images."}, "[4]": {"system": "diet-induced obese C57BL/6J mice", "assay": "Combination therapy AMPK activator + SGLT2 inhibitor in DIO mice", "assay_type": "in vivo", "conditions": "2 weeks oral gavage, Compound 1 75 mg/kg, canagliflozin 10 mg/kg", "method": "Male C57BL/6J mice, 8 weeks of age were purchased from Jackson, Charles River Laboratories, Inc. (Germany). All animals were housed in the Umeå University animal facility (Umeå Centre for Comparative Biology; UCCB) with a 12:12 hour light-dark cycle (lights on at 6 a.m.) and a constant temperature of 21° C. The animals were ear marked with a unique identification number, and groups of 5 mice were housed in transparent polycarbonate cages that comply with the requirements of the Code of Practice for the housing and care of animals used in scientific procedures. Wood chips were used as bedding material and environmental enrichment was provided. Animals were allowed to acclimate for 15 weeks to their new environment before the onset of the study. The animals were allowed ad libitum access to tap water throughout the accommodation and study period. During the acclimation period, the animals were allowed a standard pelleted diet (CRM (E) Rodent, Special Diets Services, Scanbur BK, Sweden). At the start of the study, the standard diet was changed to a very high fat diet (vHFD; Cat. No. D12492, Research Diets, Inc.) and this diet was kept throughout the whole study period. All of the procedures were approved by the Local Ethics Review Committee on Animal Experiments, Umeå Region.\n23 Weeks old male C57BL/6J mice were fed HFD to promote diet-induced obesity (DIO) and administered once daily by oral gavage; vehicle (phosphate buffer pH 7.3, 2% w/v methyl cellulose; n=11), canagliflozin 10 mg/kg (n=14), Compound 1 at 75 mg/kg (n=14) and the combination of canagliflozin 10 mg/kg and Compound 1 at […] (n=15). After 2 weeks of treatment, fasted (6 hour) blood glucose and plasma insulin levels (determined in tail vein blood samples) were analysed. Food intake and weight were monitored throughout the study.\nBlood samples were collected from the tail vein in Potassium-EDTA vials and plasma was separated by centrifugation and stored at −20° C. until assayed. Plasma insulin was determined with mouse insulin ELISA (Ultra Sensitive Mouse insulin ELISA Kit). Glucose concentrations were analysed in tail vein blood using a OneTouch® Ultra®2 Blood Glucose Meter (LifeScan, Inc).\nResults shown in the figures are expressed as means±standard error of the mean (S.E.M.) for the number of animals per group. Statistical significance between the control group and the three treatment groups were analysed by Student's t-test, with P<0.05 considered statistically significant."}}}
{"smiles": "O=C(Nc1nc(=O)n(Cc2ccc(Cl)cc2)s1)c1ccc(Cl)cc1", "note": "[test material, 4-chloro-N-[2-[(4-chlorophenyl)methyl]-3-oxo-1,2,4-thiadiazol-5-yl]benzamide]", "values": [{"measurement": "pAMPK", "setting": "[1]", "result": "increased pAMPK"}, {"measurement": "pAMPKα", "setting": "[2]", "result": "directly increased pAMPKα"}, {"measurement": "pAMPKα", "setting": "[3]", "result": "directly increased pAMPKα"}, {"measurement": "autophagic flux (LC3II)", "setting": "INS-1E cells", "result": "enhanced autophagic flux"}, {"measurement": "microvascular blood flow in hind legs", "setting": "DIO mice (B6CBAF1/J)", "result": "significantly increased microvascular blood flow"}, {"measurement": "HOMA-IR", "setting": "[4]", "result": "statistically significant (***) reduction"}, {"measurement": "fasted plasma insulin", "setting": "[4]; 6 hour fast", "result": "statistically significant (***) reduction"}]}
